Assay results taken from patent US11213517B2, “Pharmaceutical combination comprising a T-type calcium channel blocker” (IDORSIA PHARMACEUTICALS LTD, priority 2016, dated 2022).
“And” between values parts separate entries of the source, which are not always exact repeats. Identical values can stand only once. Like-named read-outs stand apart in the source and are kept apart here.

Assays:
[1] = system: audiogenic seizure-sensitive juvenile DBA/2J mice; assay: Audiogenic seizure-sensitive juvenile DBA/2J mouse model of generalized tonic-clonic seizures; assay type: in vivo; parameters: key: 0 none, 1 wild running, 2 clonus, 3 hind-limb tonic extension; details: oral gavage, mean ± SEM
From the text: Audiogenic Seizure-Sensitive Juvenile DBA/2J Mouse Model of Generalized Tonic-Clonic Seizures
The inbred DBA/2J mouse strain carries an increased general susceptibility for acute generalized convulsive seizures induced by either pharmacological, electrical or, as juvenile, auditory stimuli. At the age of 17 to 28 days (juvenile), they show tonic-clonic convulsions when exposed to a loud tone.
Male juvenile DBA/2J mice (22-24 days old, body weight between 6.6 and 14.5 grams) were used. Each mouse was placed individually in the exposure chamber, an hemispheric acrylic glass dome (diameter: 50 cm) within a sound-attenuated box. After 60 seconds of habituation, an auditory stimulus of mixed frequency tone (15-20 kHz at 110 dB) was played from a speaker placed on the top center of the dome.
The sound-attenuated box was equipped with lights and a camera system in order to observe and record the behavioral seizure response classified as following: • stage 0, no response • stage 1, wild running • stage 2, clonus • stage 3, tonic extension of the hind limbs.
(§1) Different combination efficacy experiments are performed. […] Each experiment consists of four treatment groups: • 1. Vehicle (10% Polyethylene glycol400 (PEG400)/90% methylcellulose (0.5% in water; MC0.5%)), 3 h before exposure to the auditory stimulus+vehicle, 1 h before exposure to the auditory stimulus; • 2. COMPOUND 1 (in 10% PEG400/90% MC0.5%), 3 h before exposure to the auditory stimulus+vehicle, 1 h before exposure to the auditory stimulus; • 3. Vehicle, 3 h before exposure to the auditory stimulus+AED (in 10% PEG400/90% MC0.5%), 1 h before exposure to the auditory stimulus; and • 4. COMPOUND 1 (in 10% PEG400/90% MC0.5%), 3 h before exposure to the auditory stimulus+AED (in 10% PEG400/90% MC0.5%), 1 h before exposure to the auditory stimulus.

[2] = Plasma and brain concentrations of drugs at the end of the audiogenic seizure experiment (LC-MS); assay type: in vivo, mouse; details: for concentration at 1 h: DBA/2J, mouse, oral; for concentration at 1 h / Brain concentration total: analyte LEV, oral gavage, mean ± SEM
Experimental: Briefly, blood was sampled from the vena cava caudalis with a syringe pre-filled with EDTA (ethylenediamine tetraacetic acid) as anticoagulant and centrifuged to yield plasma (for 10 minutes, at 4° C. and 5000 rpm (rounds per minute)). Brain was sampled and homogenized into one volume of cold phosphate buffer (pH 7.4). Following extraction with methanol, concentrations of the compound in plasma and brain were determined using liquid chromatography coupled to mass spectrometry.
as §1

[3] = vehicle 3 h + LEV 3 mg/kg 1 h before stimulus

For `CC[C@@H](C(N)=O)N1CCCC1=O` [LEV, (S)-2-(2-oxopyrrolidin-1-yl)butanamide], the “Seizure stage (maximal seizure stage observed during exposure to auditory stimulus)” value (“Seizure stage” below) ([1]; vehicle 3 h + LEV 1 mg/kg 1 h before stimulus) was 3.0 ± 0.0, the “Seizure stage” value ([1]; vehicle 3 h + LEV 1 mg/kg 1 h before stimulus, listed as levetiracetam) was 3 and the “Seizure stage” value [1, 3] was 2.1 ± 0.4 and 2.6 ± 0.3. The “plasma and brain concentrations after administration of the compounds alone or in combination” value ([2]; COMPOUND 1 and LEV, juvenile DBA/2J mice) was “similar”, the concentration at 1 h ([2]; brain, 1 mg/kg, vehicle 3 h + LEV 1 mg/kg 1 h before stimulus, read-out: Brain concentration total) was 224 ± 20 ng/g and the concentration at 1 h ([2]; brain, 3 mg/kg, vehicle 3 h + LEV 3 mg/kg 1 h before stimulus, read-out: Brain concentration total) was 677 ± 70 ng/g. It also gave a concentration at 1 h ([2]; brain, 10 mg/kg, vehicle 3 h + LEV 10 mg/kg 1 h before stimulus, read-out: Brain concentration total) of 2130 ± 267 ng/g, a concentration at 1 h ([2]; brain, 50 mg/kg, vehicle 3 h + LEV 50 mg/kg 1 h before stimulus, read-out: Brain concentration total) of 11100 ± 886 ng/g and a concentration at 1 h ([2]; brain, COMPOUND 1 10 mg/kg 3 h + LEV 1 mg/kg 1 h before stimulus, read-out: Brain concentration total) of 310 ± 34 ng/g. It also gave a concentration at 1 h ([2]; brain, COMPOUND 1 10 mg/kg 3 h + LEV 3 mg/kg 1 h before stimulus, read-out: Brain concentration total) of 787 ± 39 ng/g, a concentration at 1 h ([2]; brain, COMPOUND 1 10 mg/kg 3 h + LEV 10 mg/kg 1 h before stimulus, read-out: Brain concentration total) of 2590 ± 169 ng/g and a concentration at 1 h ([2]; brain, COMPOUND 1 10 mg/kg 3 h + LEV 50 mg/kg 1 h before stimulus, read-out: Brain concentration total) of 12600 ± 549 ng/g. The concentration at 1 h ([2]; brain, COMPOUND 1 30 mg/kg 3 h + LEV 3 mg/kg 1 h before stimulus, read-out: Brain concentration total) was 714 ± 59 ng/g, the concentration at 1 h ([2]; brain, COMPOUND 1 30 mg/kg 3 h + LEV 10 mg/kg 1 h before stimulus, read-out: Brain concentration total) was 2150 ± 142 ng/g and the concentration at 1 h ([2]; brain, COMPOUND 1 30 mg/kg 3 h + LEV 50 mg/kg 1 h before stimulus, read-out: Brain concentration total) was 13500 ± 1380 ng/g. The concentration at 1 h ([2]; plasma, 1 mg/kg, vehicle 3 h + LEV 1 mg/kg 1 h before stimulus, read-out: Plasma concentration total) was 541 ± 48 ng/mL, the concentration at 1 h ([2]; plasma, 3 mg/kg, vehicle 3 h + LEV 3 mg/kg 1 h before stimulus, read-out: Plasma concentration total) was 1170 ± 53 ng/mL and the concentration at 1 h ([2]; plasma, 10 mg/kg, vehicle 3 h + LEV 10 mg/kg 1 h before stimulus, read-out: Plasma concentration total) was 4530 ± 473 ng/mL. The concentration at 1 h ([2]; plasma, 50 mg/kg, vehicle 3 h + LEV 50 mg/kg 1 h before stimulus, read-out: Plasma concentration total) was 26500 ± 2810 ng/mL, the concentration at 1 h ([2]; plasma, COMPOUND 1 10 mg/kg 3 h + LEV 1 mg/kg 1 h before stimulus, read-out: Plasma concentration total) was 564 ± 42 ng/mL and the concentration at 1 h ([2]; plasma, COMPOUND 1 10 mg/kg 3 h + LEV 3 mg/kg 1 h before stimulus, read-out: Plasma concentration total) was 1250 ± 53 ng/mL. For the same compound, the concentration at 1 h ([2]; plasma, COMPOUND 1 10 mg/kg 3 h + LEV 10 mg/kg 1 h before stimulus, read-out: Plasma concentration total) was 5780 ± 232 ng/mL, the concentration at 1 h ([2]; plasma, COMPOUND 1 10 mg/kg 3 h + LEV 50 mg/kg 1 h before stimulus, read-out: Plasma concentration total) was 27000 ± 1350 ng/mL and the concentration at 1 h ([2]; plasma, COMPOUND 1 30 mg/kg 3 h + LEV 3 mg/kg 1 h before stimulus, read-out: Plasma concentration total) was 1230 ± 64 ng/mL. The concentration at 1 h ([2]; plasma, COMPOUND 1 30 mg/kg 3 h + LEV 10 mg/kg 1 h before stimulus, read-out: Plasma concentration total) was 3880 ± 226 ng/mL, the concentration at 1 h ([2]; plasma, COMPOUND 1 30 mg/kg 3 h + LEV 50 mg/kg 1 h before stimulus, read-out: Plasma concentration total) was 26200 ± 2400 ng/mL and the Brain concentration total [2, 3] was 675 ± 82 ng/g. For the same compound, the Brain concentration total ([2]; vehicle 3 h + LEV 10 mg/kg 1 h before stimulus) was 2307 ± 207 ng/g and the Brain concentration total ([2]; vehicle 3 h + LEV 50 mg/kg 1 h before stimulus) was 11318 ± 1440 ng/g.
